Experimental data as given in ChEMBL document CHEMBL1759880, “A facile, one-pot synthesis, characterization and antimicrobial activity of o-hydroxy anilide derivatives and 1-substituted-1,3-dicyclohexylurea analogs of long chain carboxylic acids” (2011).
Converted amounts (≈) assume the structure as drawn.

What was measured:
Staphylococcus aureus [1] = experiment: Antibacterial activity against Staphylococcus aureus ATCC 25923 after 24 hrs by broth dilution technique; assay type: functional; settings: ATCC-25923, 24 h
Escherichia coli [2] = experiment: Antibacterial activity against Escherichia coli ATCC 25922 after 24 hrs by broth dilution technique; assay type: functional; settings: ATCC-25922, 24 h
Escherichia coli [3] = experiment: Antibacterial activity against Escherichia coli ATCC 25922 after 24 hrs by disc diffusion method; assay type: functional
Klebsiella pneumoniae [4] = experiment: Antibacterial activity against Klebsiella pneumoniae clinical isolate after 24 hrs by disc diffusion method; assay type: functional
Streptococcus pyogenes [5] = experiment: Antibacterial activity against Streptococcus pyogenes clinical isolate after 24 hrs by broth dilution technique; assay type: functional
Klebsiella pneumoniae [6] = experiment: Antibacterial activity against Klebsiella pneumoniae clinical isolate after 24 hrs by broth dilution technique; assay type: functional
Streptococcus pyogenes [7] = experiment: Antibacterial activity against Streptococcus pyogenes clinical isolate after 24 hrs by disc diffusion method; assay type: functional
Staphylococcus aureus [8] = experiment: Antibacterial activity against Staphylococcus aureus ATCC 25923 after 24 hrs by disc diffusion method; assay type: functional
Candida albicans [9] = experiment: Antifungal activity against Candida albicans after 3 to 4 days by disc diffusion method; assay type: functional
Aspergillus fumigatus [10] = experiment: Antifungal activity against Aspergillus fumigatus after 3 to 4 days by disc diffusion method; assay type: functional
Talaromyces marneffei [11] = experiment: Antifungal activity against Penicillium marneffei after 3 to 4 days by disc diffusion method; assay type: functional
[12] = system: Trichophyton mentagrophytes; experiment: Antifungal activity against Trichophyton mentagrophytes after 3 to 4 days by disc diffusion method; assay type: functional
Candida albicans [13] = experiment: Antifungal activity against Candida albicans after 48 hrs by broth dilution technique; assay type: functional
Aspergillus fumigatus [14] = experiment: Antifungal activity against Aspergillus fumigatus after 48 hrs by broth dilution technique; assay type: functional
Talaromyces marneffei [15] = experiment: Antifungal activity against Penicillium marneffei after 48 hrs by broth dilution technique; assay type: functional
[16] = system: Trichophyton mentagrophytes; experiment: Antifungal activity against Trichophyton mentagrophytes after 48 hrs by broth dilution technique; assay type: functional
Pseudomonas aeruginosa [17] = experiment: Antibacterial activity against Pseudomonas aeruginosa ATCC 27853 after 24 hrs by disc diffusion method
Pseudomonas aeruginosa [18] = experiment: Antibacterial activity against Pseudomonas aeruginosa ATCC 27853 after 24 hrs by broth dilution technique; settings: ATCC-27853, 24 h

CCCCCCCCCCCCCCCCCC(=O)Nc1ccccc1O
MBC (Staphylococcus aureus [1]): 100 µg/mL (≈ 266 µM)
MIC (Staphylococcus aureus [1]): 100 µg/mL (≈ 266 µM)
MBC (Escherichia coli [2]): 100 µg/mL (≈ 266 µM)
MIC (Escherichia coli [2]): 100 µg/mL (≈ 266 µM)
diameter of the inhibition zone (DIZ) (Escherichia coli [3]): 12.4 mm
diameter of the inhibition zone (DIZ) (Klebsiella pneumoniae [4]): 11.4 mm
MBC (Streptococcus pyogenes [5]): 100 µg/mL (≈ 266 µM)
MIC (Streptococcus pyogenes [5]): 50 µg/mL (≈ 133 µM)
MBC (Klebsiella pneumoniae [6]): 100 µg/mL (≈ 266 µM)
MIC (Klebsiella pneumoniae [6]): 50 µg/mL (≈ 133 µM)
diameter of the inhibition zone (DIZ) (Streptococcus pyogenes [7]): 10.8 mm
diameter of the inhibition zone (DIZ) (Staphylococcus aureus [8]): 10.5 mm
diameter of the inhibition zone (DIZ) (Candida albicans [9]): 14.7 mm
diameter of the inhibition zone (DIZ) (Aspergillus fumigatus [10]): 12.4 mm
diameter of the inhibition zone (DIZ) (Talaromyces marneffei [11]): 10.2 mm
diameter of the inhibition zone (DIZ) [12]: 10.5 mm
MFC (Candida albicans [13]): 25 µg/mL (≈ 66.6 µM)
MIC (Candida albicans [13]): 12.5 µg/mL (≈ 33.3 µM)
MFC (Aspergillus fumigatus [14]): 50 µg/mL (≈ 133 µM)
MIC (Aspergillus fumigatus [14]): 25 µg/mL (≈ 66.6 µM)
MFC (Talaromyces marneffei [15]): 100 µg/mL (≈ 266 µM)
MIC (Talaromyces marneffei [15]): 50 µg/mL (≈ 133 µM)
MFC [16]: 100 µg/mL (≈ 266 µM)
MIC [16]: 50 µg/mL (≈ 133 µM)
diameter of the inhibition zone (DIZ) (Pseudomonas aeruginosa [17]): 11.9 mm
MBC (Pseudomonas aeruginosa [18]): 100 µg/mL (≈ 266 µM)
MIC (Pseudomonas aeruginosa [18]): 100 µg/mL (≈ 266 µM)
